± gives the standard deviation of the reports.
Row | Structure (SMILES) | glass transition temperature [°C]
1 | *CC(*)(C)C(=O)Oc1ccc(CC#N)cc1 (repeat unit) | 131.00
2 | *CC(*)c1ccc(C(=O)OC)cc1 (repeat unit) [Poly(p-methoxycarbonyl styrene) ] | 113 ± 5.6
3 | *c1cc(C(c2ccc(OCCN(C)c3ccc(/C=C/C4=CC(=C(/C#N)C(=O)OCCc5ccccc5)/CC(C)(C)C4)cc3)c(N3C(=O)c4ccc(Oc5ccc6c(c5)C(=O)N(*)C6=O)cc4C3=O)c2)(C(F)(F)F)C(F)(F)F)ccc1OCCN(c1ccccc1)c1ccc(/C=C/C2=CC(=C(/C#N)C(=O)OCCc3ccccc3)/CC(C)(C)C2)cc1 (repeat unit) | 177.00
4 | *c1ccc(Oc2ccc(-c3ccc(-c4ccc(Oc5ccc(-c6c7c(c(*)c8ccccc68)C(=O)N(c6ccccc6)C7=O)cc5)c(C(F)(F)F)c4)cc3)cc2C(F)(F)F)cc1 (repeat unit) | 317.00
5 | *C(=O)NCCNC(=O)c1ccc(N2C(=O)c3ccc(*)cc3C2=O)cc1 (repeat unit) | 235.00
6 | *O[Si](*)(C)CCCCCCCCCCCn1c2ccccc2c2ccccc21 (repeat unit) | -45.00
7 | *Oc1ccc(Oc2ccc(C(=O)c3cccc4cccc(C(=O)c5ccc(*)cc5)c34)cc2)cc1C(C)(C)C (repeat unit) | 230.00
8 | *CCNC(=O)Nc1ccc(Cc2ccc(NC(=O)NCCOCCO*)cc2)cc1 (repeat unit) | 8.00
9 | *c1ccc(-c2ccc(-n3c(=O)c4c(C(F)(F)F)c5c(=O)n(*)c(=O)c5c(C(F)(F)F)c4c3=O)cc2C(F)(F)F)c(C(F)(F)F)c1 (repeat unit) | 304.00
10 | *CC/C=C(/*)C(C)C (repeat unit) | -47.00
11 | */C=C/c1ccc(/N=N/c2ccc(N(C)CCOC(=O)Nc3ccc(C)c(NC(=O)OCCN(C)c4ccc(/N=N/c5ccc(/C=C/C6=CC(=C(C#N)C#N)C=C(*)O6)cc5)cc4)c3)cc2)cc1 (repeat unit) | 196.00
12 | *c1ccc(C(=O)c2ccc(N3C(=O)c4ccc(Oc5ccc(Oc6ccc7c(c6)C(=O)N(*)C7=O)cc5)cc4C3=O)cc2)cc1 (repeat unit) | 268.00
13 | *CCCCCCOC(=O)OCCCCCCCCOC(=O)OCCCCCCOc1ccc(C(=O)c2ccc(O*)cc2)cc1 (repeat unit) | -7.70
14 | *CCCCCCCN1C(=O)c2ccc(-c3ccc(-c4ccc5c(c4)C(=O)N(*)C5=O)cc3)cc2C1=O (repeat unit) | 135.00
15 | *CCCCOC(=O)c1ccc2cc(C(=O)O*)ccc2c1 (repeat unit) | 66.00
16 | *CCC1CC(*)C2C3CCC(C3)C12 (repeat unit) | 164.00
17 | *Oc1cc(OC(=O)c2ccc(OCCCC)cc2)c(OC(=O)CCCCCCCC(*)=O)cc1OC(=O)c1ccc(OCCCC)cc1 (repeat unit) | 38.00
18 | *C(=O)c1ccc(Oc2ccc(C(C)(C)c3ccc(Oc4ccc(*)s4)cc3)cc2)cc1 (repeat unit) | 151.00
19 | *Oc1ccc(NC(=O)c2cccc(C(=O)Nc3ccc(Oc4ccc(C5(c6ccc(*)cc6)C6CC7CC(C6)CC5C7)cc4)cc3)c2)cc1 (repeat unit) | 273.00
20 | *CCCCCOc1ccc(C(=O)OC(=O)c2ccc(O*)cc2)cc1 (repeat unit) | 53.00
21 | *CC(*)(C)C(=O)Oc1ccc(/N=N/c2ccc([N+](=O)[O-])cc2)cc1 (repeat unit) | 145.00

Row | Structure (SMILES) | glass transition temperature [°C]
22 | *CC(c1ccccc1)C1C(=O)NC(=O)C1* (repeat unit) | 246.00
23 | *Oc1ccc(C(C)(C)c2ccc(OC(*)=O)c(Cl)c2)cc1 (repeat unit) | 146.00
24 | *CC(*)(C)C(=O)OCc1ccc(/C=C/C(=O)C2c3ccccc3C(=O)c3ccccc32)cc1 (repeat unit) | 163.00
25 | *Oc1ccc(-c2ccc(-c3cc(-c4ccccc4)c(-c4ccc(-c5ccc(OC(=O)c6ccc(C(*)=O)cc6-c6ccccc6)cc5)cc4)c(-c4ccccc4)c3-c3ccccc3)cc2)cc1 (repeat unit) | 260.00
26 | *CCCCCCOC(=O)c1cc(OCCCCCCOc2ccc(/N=N/c3ccc(C#N)cc3)cc2)cc(C(=O)OCCCCCCN2C(=O)c3ccc(Oc4ccc5c(c4)C(=O)N(*)C5=O)cc3C2=O)c1 (repeat unit) | 61.00
27 | *c1ccc2c(c1)C(=O)N(c1cccc(C(F)(F)C(F)(F)C(F)(F)C(F)(F)C(F)(F)c3cccc(N4C(=O)c5ccc(C(F)(F)C(F)(F)C(*)(F)F)cc5C4=O)c3)c1)C2=O (repeat unit) | 111.00
28 | *CCC(C)CC(=O)O* (repeat unit) | -71.50
29 | *c1ccc2c(c1)C(=O)N(c1ccc(Oc3ccc(N4C(=O)c5ccc(C(F)(F)C(F)(F)C(F)(F)C(F)(F)C(F)(F)C(*)(F)F)cc5C4=O)cc3)cc1)C2=O (repeat unit) | 185.00
30 | *c1ccc(C(C)(C)c2ccc(N3C(=O)c4ccc(Oc5cccc6c(Oc7ccc8c(c7)C(=O)N(*)C8=O)cccc56)cc4C3=O)cc2)cc1 (repeat unit) | 265.00
31 | *c1ccc(OCCN(C)c2ccc(/C=C/C3=CC(=C4/C(=O)c5ccccc5C4=C(C#N)C#N)/C=C(/C=C/c4ccc(N(C)CCOc5ccc(-c6nc7ccc(Oc8ccc9nc(*)c(-c%10ccccc%10)nc9c8)cc7nc6-c6ccccc6)cc5)cc4)O3)cc2)cc1 (repeat unit) | 260.00
32 | *CC(*)C(=O)OCC(COC(=O)c1ccccc1)(COC(=O)c1ccccc1)COC(=O)c1ccccc1 (repeat unit) | 48.00
33 | *Nc1ccc(NC(=O)c2ccc(NC(=O)c3ccc(P(=O)(c4ccccc4)c4ccc(C(*)=O)cc4)cc3)cc2)cc1 (repeat unit) | 243.00
34 | *Oc1cccc(C(=O)c2ccc(Oc3ccc(C(=O)c4ccc(*)cc4)cc3)cc2)c1 (repeat unit) | 146.00
35 | *O[Si](Oc1ccc(C2(c3ccc(*)cc3)c3ccccc3-c3ccccc32)cc1)(c1ccccc1)c1ccccc1 (repeat unit) | 166.00
36 | *CNC(=O)OCc1ccc(COC(=O)NCc2ccc(C(C)(C)c3ccc(*)o3)o2)o1 (repeat unit) | 55.00
37 | *c1ccc(Oc2ccc(C3(c4ccc(Oc5ccc(N6C(=O)c7ccc(Oc8ccc(C9(c%10ccc(Oc%11ccc%12c(c%11)C(=O)N(*)C%12=O)cc%10)CCC(c%10ccccc%10)CC9)cc8)cc7C6=O)cc5)cc4)CC4CC3C3CCCC43)cc2)cc1 (repeat unit) | 255.00
38 | *O[Si](*)(C)C1CC2CC1CC2OC(=O)OC(C)(C)C (repeat unit) | 60.00
39 | *CCCCCCCCCNC(=O)C(OC)C(OC)C(=O)N* (repeat unit) | 84.00
40 | *Oc1ccc(C(C)(C)c2ccc(Oc3nc(*)nc(Cl)n3)cc2)cc1 (repeat unit) | 80.00
41 | *CC(*)c1ccccc1F (repeat unit) | 160.50
42 | *CC(F)(F)C1(F)CC(CC(O)(C(F)(F)F)C(F)(F)F)CC1* (repeat unit) | 98.00

Row | Structure (SMILES) | glass transition temperature [°C]
43 | *CC(O)COc1ccc(S(=O)(=O)c2ccc(OCC(O)COc3ccc(S(=O)(=O)c4ccc(O*)c(C)c4)cc3C)cc2)cc1 (repeat unit) | 142.50
44 | *CCN(CCOC(=O)NCCCCCCNC(=O)O*)c1ccc(/N=N/c2ccc([N+](=O)[O-])cc2)c(C)c1 (repeat unit) | 75.00
45 | *C(=O)Oc1ccc(OC(=O)c2ccc3c(c2)C(=O)N(C2CCC(N4C(=O)c5ccc(*)cc5C4=O)CC2)C3=O)cc1 (repeat unit) | 360.00
46 | *Oc1ccc(OC(=O)c2ccc(C(*)=O)cc2)cc1C1CCCCCCC1 (repeat unit) | 213.00
47 | *C(=O)c1ccc2c(c1)C(=O)N(c1ccc(Sc3ccc(N4C(=O)c5ccc(*)cc5C4=O)cn3)nc1)C2=O (repeat unit) | 246.00
48 | *CCCCCCCC(=O)OCC1COC(*)O1 (repeat unit) | -23.00
49 | *CC(O)COc1ccc(C(C)(C)c2ccc(OCC(O)COc3c(C)cc(C(C)(C)c4cc(C)c(O*)c(C)c4)cc3C)cc2)cc1 (repeat unit) | 100.00
50 | *c1cccc(C(=O)Nc2ccc(Oc3ccc(-c4ccc(Oc5ccc(NC(=O)c6cccc(N7C(=O)c8ccc(-c9cccc%10c9C(=O)N(*)C%10=O)cc8C7=O)c6)cc5)cc4)cc3)cc2)c1 (repeat unit) | 275.00
51 | *CC(O)CN(*)c1ccc(/N=N/c2ccc(Cl)cc2)cc1 (repeat unit) | 160.00
52 | *CC(C)(COC(=O)NCCCCCCNC(=O)O*)C(=O)O (repeat unit) | -26.00
53 | *OP(=O)(Oc1c(Cl)c(Cl)c(*)c(Cl)c1Cl)Oc1c(Cl)c(Cl)c(Cl)c(Cl)c1Cl (repeat unit) | 133.00
54 | *CC(CCCC)C(CCCC)COC(=O)c1ccc(C(=O)O*)cc1 (repeat unit) | 16.00
55 | *CCCCCCCCC(=O)N* (repeat unit) | 48.00
56 | *c1ccc2c(c1)C(=O)N(c1cc(OCCCCCCCCCCCCCCCC)cc(N3C(=O)c4ccc(C(*)(C(F)(F)F)C(F)(F)F)cc4C3=O)c1)C2=O (repeat unit) | 161.00
57 | *Oc1ccc(C2(c3ccc(Oc4ccc(C(=O)c5ccc(C(=O)c6ccc(*)cc6)cc5)cc4)cc3)c3ccccc3-c3ccccc32)cc1 (repeat unit) | 243.00
58 | *c1ccc(Oc2ccc(-c3cccc(-c4ccc(Oc5ccc(-c6c7c(c(*)c8ccccc68)C(=O)N(c6ccccc6)C7=O)cc5)c(C(F)(F)F)c4)c3)cc2C(F)(F)F)cc1 (repeat unit) | 271.00
59 | *CC(*)(C)C(=O)Oc1ccc2c(c1)CCC2 (repeat unit) | 113.50
60 | *C([2H])([2H])C(*)([2H])Cl (repeat unit) | 85.00
61 | *c1cccc(P(=O)(c2ccccc2)c2cccc(N3C(=O)c4ccc(NC(=O)OCCOc5c(Br)cc(C(C)(C)c6cc(Br)c(OCCOC(=O)Nc7ccc8c(c7)C(=O)N(*)C8=O)c(Br)c6)cc5Br)cc4C3=O)c2)c1 (repeat unit) | 201.00
62 | *O[Si](C)(C)c1ccc2ccc3c([Si](*)(C)C)ccc4ccc1c2c43 (repeat unit) | 65.00
